Data reported in the supplement of paper PMC13207355.

Columns and labels:
Conditions in all cases: exposure time: 72 h
E13 [1] = patient-derived glioblastoma stem cells of classical subtype; test: surviving fraction (nuclei count normalised to DMSO); higher = more cells surviving (less toxic)
E31 [2] = patient-derived glioblastoma stem cells of proneural subtype; test: as above
E57 [3] = patient-derived glioblastoma stem cells of mesenchymal subtype; test: as above
FT3469 [4] = normal neural stem cell line; test: as above
E28 [5] = patient-derived glioblastoma stem cells of classical subtype; test: as above
E21 [6] = patient-derived glioblastoma stem cells of mesenchymal subtype; test: as above
E34 [7] = patient-derived glioblastoma stem cells of proneural subtype; test: as above
E13 [8] = test: phenotypic distance (Euclidean, principal components) from DMSO controls (arbitrary units); higher = stronger morphological change
E31 [9] = test: as above
E57 [10] = test: as above
FT3469 [11] = test: as above
E28 [12] = test: as above
E21 [13] = test: as above
E34 [14] = test: as above
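Wherever phenotypic distance (Euclidean, principal components) from DMSO controls is given: cell Painting imaging in 384-well plates, CellProfiler features reduced to at least 20 principal components, Euclidean distance versus same-plate DMSO vehicle wells (0.1% v/v), median over six images per well.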
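Wherever surviving fraction (nuclei count normalised to DMSO) is given: nuclei counted by high-content imaging of Hoechst-stained cells in laminin-coated 384-well plates, relative to 0.1% DMSO vehicle wells, with staurosporine as cell-death control.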

Cc1cc(CN2CCN(c3c(Br)cnc4nc(-c5ccc(N6CCN(C)CC6)cc5)[nH]c34)CC2)no1
Conditions	phenotypic distance	surviving fraction
E13 [1], 4.1 nM	–	0.995
E13 [1], 12.3 nM	–	0.966
E13 [1], 37 nM	–	0.963
E13 [1], 111.1 nM	–	0.91
E13 [1], 333.3 nM	–	0.676
E13 [1], 1000 nM	–	0.528
E13 [1], 3000 nM	–	0.0986
E13 [8], 4.1 nM	0.33	–
E13 [8], 12.3 nM	0.336	–
E13 [8], 37 nM	0.51	–
E13 [8], 111.1 nM	0.456	–
E13 [8], 333.3 nM	1.86	–
E13 [8], 1000 nM	4.59	–
E13 [8], 3000 nM	13.4	–
E21 [6], 4.1 nM	–	0.936
E21 [6], 12.3 nM	–	0.864
E21 [6], 37 nM	–	0.9
E21 [6], 111.1 nM	–	0.917
E21 [6], 333.3 nM	–	0.6
E21 [6], 1000 nM	–	0.387
E21 [6], 3000 nM	–	0.0348
E21 [13], 4.1 nM	1.03	–
E21 [13], 12.3 nM	0.842	–
E21 [13], 37 nM	0.688	–
E21 [13], 111.1 nM	0.989	–
E21 [13], 333.3 nM	2.77	–
E21 [13], 1000 nM	5.77	–
E21 [13], 3000 nM	7.03	–
E28 [5], 4.1 nM	–	1.15
E28 [5], 12.3 nM	–	0.888
E28 [5], 37 nM	–	1.09
E28 [5], 111.1 nM	–	0.916
E28 [5], 333.3 nM	–	0.806
E28 [5], 1000 nM	–	0.392
E28 [5], 3000 nM	–	0.163
E28 [12], 4.1 nM	1.13	–
E28 [12], 12.3 nM	1.52	–
E28 [12], 37 nM	1.01	–
E28 [12], 111.1 nM	1.29	–
E28 [12], 333.3 nM	1.23	–
E28 [12], 1000 nM	2.97	–
E28 [12], 3000 nM	5.6	–
E31 [2], 4.1 nM	–	1.02
E31 [2], 12.3 nM	–	0.782
E31 [2], 37 nM	–	0.994
E31 [2], 111.1 nM	–	0.867
E31 [2], 333.3 nM	–	0.511
E31 [2], 1000 nM	–	0.334
E31 [2], 3000 nM	–	0.00629
E31 [9], 4.1 nM	0.99	–
E31 [9], 12.3 nM	1.9	–
E31 [9], 37 nM	1.97	–
E31 [9], 111.1 nM	0.784	–
E31 [9], 333.3 nM	1.62	–
E31 [9], 1000 nM	3.36	–
E31 [9], 3000 nM	10.2	–
E34 [7], 4.1 nM	–	0.839
E34 [7], 12.3 nM	–	0.842
E34 [7], 37 nM	–	1.09
E34 [7], 111.1 nM	–	0.872
E34 [7], 333.3 nM	–	0.827
E34 [7], 1000 nM	–	0.618
E34 [7], 3000 nM	–	0.26
E34 [14], 4.1 nM	1.02	–
E34 [14], 12.3 nM	1.13	–
E34 [14], 37 nM	0.858	–
E34 [14], 111.1 nM	0.728	–
E34 [14], 333.3 nM	2.67	–
E34 [14], 1000 nM	2.84	–
E34 [14], 3000 nM	8.59	–
E57 [3], 4.1 nM	–	0.974
E57 [3], 12.3 nM	–	0.888
E57 [3], 37 nM	–	0.906
E57 [3], 111.1 nM	–	0.871
E57 [3], 333.3 nM	–	0.651
E57 [3], 1000 nM	–	0.325
E57 [3], 3000 nM	–	0.0382
E57 [10], 4.1 nM	0.499	–
E57 [10], 12.3 nM	0.684	–
E57 [10], 37 nM	0.82	–
E57 [10], 111.1 nM	1.16	–
E57 [10], 333.3 nM	5.64	–
E57 [10], 1000 nM	8.26	–
E57 [10], 3000 nM	9.56	–
FT3469 [4], 4.1 nM	–	0.662
FT3469 [4], 12.3 nM	–	0.758
FT3469 [4], 37 nM	–	0.843
FT3469 [4], 111.1 nM	–	0.737
FT3469 [4], 333.3 nM	–	0.705
FT3469 [4], 1000 nM	–	0.676
FT3469 [4], 3000 nM	–	0.37
FT3469 [11], 4.1 nM	1.38	–
FT3469 [11], 12.3 nM	0.929	–
FT3469 [11], 37 nM	1.76	–
FT3469 [11], 111.1 nM	1.44	–
FT3469 [11], 333.3 nM	1.88	–
FT3469 [11], 1000 nM	2.37	–
FT3469 [11], 3000 nM	9.55	–

Cc1ccc2c(c1)C1(CCN(CCc3nc(-c4ccccc4)oc3C)CC1)OC(=O)N2
Conditions	phenotypic distance	surviving fraction
E13 [1], 4.1 nM	–	0.988
E13 [1], 12.3 nM	–	1.09
E13 [1], 37 nM	–	1.12
E13 [1], 111.1 nM	–	1.07
E13 [1], 333.3 nM	–	1.12
E13 [1], 1000 nM	–	1.11
E13 [1], 3000 nM	–	0.943
E13 [8], 4.1 nM	2.72	–
E13 [8], 12.3 nM	2.97	–
E13 [8], 37 nM	1.42	–
E13 [8], 111.1 nM	0.52	–
E13 [8], 333.3 nM	0.547	–
E13 [8], 1000 nM	0.819	–
E13 [8], 3000 nM	0.711	–
E21 [6], 4.1 nM	–	0.932
E21 [6], 12.3 nM	–	0.961
E21 [6], 37 nM	–	0.956
E21 [6], 111.1 nM	–	1.07
E21 [6], 333.3 nM	–	0.988
E21 [6], 1000 nM	–	0.923
E21 [6], 3000 nM	–	0.891
E21 [13], 4.1 nM	1.42	–
E21 [13], 12.3 nM	0.605	–
E21 [13], 37 nM	4.58	–
E21 [13], 111.1 nM	0.716	–
E21 [13], 333.3 nM	0.433	–
E21 [13], 1000 nM	0.642	–
E21 [13], 3000 nM	1.29	–
E28 [5], 4.1 nM	–	1.07
E28 [5], 12.3 nM	–	0.977
E28 [5], 37 nM	–	1.11
E28 [5], 111.1 nM	–	0.99
E28 [5], 333.3 nM	–	1.11
E28 [5], 1000 nM	–	0.938
E28 [5], 3000 nM	–	1.1
E28 [12], 4.1 nM	0.761	–
E28 [12], 12.3 nM	1.33	–
E28 [12], 37 nM	0.46	–
E28 [12], 111.1 nM	0.636	–
E28 [12], 333.3 nM	0.695	–
E28 [12], 1000 nM	0.667	–
E28 [12], 3000 nM	0.74	–
E31 [2], 4.1 nM	–	1.04
E31 [2], 12.3 nM	–	0.99
E31 [2], 37 nM	–	1.01
E31 [2], 111.1 nM	–	0.979
E31 [2], 333.3 nM	–	1.04
E31 [2], 1000 nM	–	0.996
E31 [2], 3000 nM	–	0.955
E31 [9], 4.1 nM	1.24	–
E31 [9], 12.3 nM	0.61	–
E31 [9], 37 nM	0.972	–
E31 [9], 111.1 nM	0.485	–
E31 [9], 333.3 nM	0.605	–
E31 [9], 1000 nM	0.491	–
E31 [9], 3000 nM	0.687	–
E34 [7], 4.1 nM	–	0.851
E34 [7], 12.3 nM	–	1.03
E34 [7], 37 nM	–	0.875
E34 [7], 111.1 nM	–	0.878
E34 [7], 333.3 nM	–	1.17
E34 [7], 1000 nM	–	1.07
E34 [7], 3000 nM	–	1.05
E34 [14], 4.1 nM	0.895	–
E34 [14], 12.3 nM	2	–
E34 [14], 37 nM	0.587	–
E34 [14], 111.1 nM	0.749	–
E34 [14], 333.3 nM	0.998	–
E34 [14], 1000 nM	0.765	–
E34 [14], 3000 nM	0.942	–
E57 [3], 4.1 nM	–	1.05
E57 [3], 12.3 nM	–	1.03
E57 [3], 37 nM	–	0.923
E57 [3], 111.1 nM	–	1.01
E57 [3], 333.3 nM	–	1.04
E57 [3], 1000 nM	–	0.967
E57 [3], 3000 nM	–	1.02
E57 [10], 4.1 nM	0.955	–
E57 [10], 12.3 nM	0.495	–
E57 [10], 37 nM	0.64	–
E57 [10], 111.1 nM	0.513	–
E57 [10], 333.3 nM	0.49	–
E57 [10], 1000 nM	0.453	–
E57 [10], 3000 nM	0.766	–
FT3469 [4], 4.1 nM	–	0.873
FT3469 [4], 12.3 nM	–	1.15
FT3469 [4], 37 nM	–	1.04
FT3469 [4], 111.1 nM	–	0.795
FT3469 [4], 333.3 nM	–	1.1
FT3469 [4], 1000 nM	–	1.03
FT3469 [4], 3000 nM	–	0.991
FT3469 [11], 4.1 nM	1.5	–
FT3469 [11], 12.3 nM	0.887	–
FT3469 [11], 37 nM	0.645	–
FT3469 [11], 111.1 nM	1.16	–
FT3469 [11], 333.3 nM	0.543	–
FT3469 [11], 1000 nM	0.575	–
FT3469 [11], 3000 nM	0.661	–
